Legend:
[1] = target: T1, GPCR HM74A (niacin receptor) (Homo sapiens, UniProt Q8TDS4); test: FLIPR in vitro functional assay, intracellular Ca2+ in recombinant HEK293 cells expressing HM74A and Gα6qi4myr; type: cell-based; conditions: 100% = 1 μM niacin
T1 construct: expressed in transfected cells; host or cells: HEK293
Description: Function-testing assays were carried out by means of the FLIPR technique (“Fluorescence Imaging Plate Reader”, Molecular Devices Corp.). For this purpose, agonist-induced changes in the intracellular concentration of Ca^2+ in recombinant HEK293 cells which express both the GPCR HM74A (niacin receptor) and the hybrid G-protein Gα6qi4myr (see, for example, DE patent application 10033353) were determined.
For the investigations, cells were seeded into 96-well microtiter plates (60 000 cells/well) and allowed to grow overnight. The medium was removed and the cells were incubated in buffer which contained the fluorescent dye Fluo-4. After this loading with dye, the cells were washed, test substance was added, and changes in the intracellular Ca^2+ concentration were measured in the FLIPR apparatus. Results have been shown as percentage change relative to the control (0%: no test substance added; 100%:1 μM reference agonist niacin added), used to calculate dose/activity plots and EC50 values determined.

[2] = test system: lipolysis; test: Inhibition of lipolysis in the whole animal after p.o. administration (FFA, glycerol, triglycerides in blood); type: in vivo, Wistar rats
Description: The effect was tested on the whole animal (mouse, rat, hamster or dog), after a fasting period (e.g. of about 16 hours the substance is administered (e.g. p.o., iv., i.p., s.c.) and, with or without additional stimulation of endogenous lipolysis (e.g. by a bolus injection of 2 mg/kg i.p. isoprenaline), the effect of the test substance on lipolysis is determined on the basis of the liberated free fatty acids (FFA), glycerol and triglycerides by obtaining a blood sample (e.g. by retroorbital blood sampling) e.g. 15 min, 30, 60, 120 etc minutes after p.o. administration, and analyzing by standard methods of clinical chemistry (e.g. L. Thomas: Labor and Diagnose, 2nd edition, Medizinische Verlagsgesellschaft, Marburg/L. 1984; ISBN 3-921320-10-9)). The inhibition of lipolysis by the inhibitors is analyzed by comparing with the rate of lipolysis in correspondingly treated control animals.

[3] = 3 mg/kg po, 15 min, Wistar rats
[4] = 3 mg/kg po, 30 min, Wistar rats
[5] = 3 mg/kg po, 60 min, Wistar rats
[6] = 3 mg/kg po, 120 min, Wistar rats
[7] = 3 mg/kg po, time 0, Wistar rats
[8] = 1 mg/kg po, 30 min, Wistar rats
[9] = 1 mg/kg po, 60 min, Wistar rats
[10] = 1 mg/kg po, 120 min, Wistar rats
[11] = 1 mg/kg po, time 0, Wistar rats
[12] = 10 mg/kg po, 30 min, Wistar rats
[13] = 10 mg/kg po, 60 min, Wistar rats
[14] = 10 mg/kg po, 120 min, Wistar rats
[15] = 10 mg/kg po, time 0, Wistar rats

T1 sequence (Q8TDS4 whole entry): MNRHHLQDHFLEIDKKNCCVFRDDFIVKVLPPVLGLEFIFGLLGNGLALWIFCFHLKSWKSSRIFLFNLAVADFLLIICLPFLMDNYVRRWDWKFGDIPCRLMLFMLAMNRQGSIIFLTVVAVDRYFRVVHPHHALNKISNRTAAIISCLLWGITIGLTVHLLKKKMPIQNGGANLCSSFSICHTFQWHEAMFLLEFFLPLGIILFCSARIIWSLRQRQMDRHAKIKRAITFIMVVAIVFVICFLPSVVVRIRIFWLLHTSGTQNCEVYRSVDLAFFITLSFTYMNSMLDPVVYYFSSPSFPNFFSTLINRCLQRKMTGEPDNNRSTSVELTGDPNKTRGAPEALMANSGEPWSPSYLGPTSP

## O=C(O)c1cc(=O)cco1 [Example 1]
[1]
  EC50: 0.09 µM
[2]; 3 mg/kg po
  lipolysis (reduction in FFA, glycerol and triglycerides): distinctly reduced
[2]; [3]
  FFA: 0.22 mmol/L
  Glycerol: 55 µmol/L
  Triglycerides: 0.48 mmol/L
[2]; [4]
  FFA: 0.14 mmol/L
  Glycerol: 43 µmol/L
  Triglycerides: 0.28 mmol/L
[2]; [5]
  FFA: 0.16 mmol/L
  Glycerol: 43 µmol/L
  Triglycerides: 0.21 mmol/L
[2]; [6]
  FFA: 0.28 mmol/L
  Glycerol: 74 µmol/L
  Triglycerides: 0.25 mmol/L
[2]; [7]
  FFA: 0.55 mmol/L
  Glycerol: 117 µmol/L
  Triglycerides: 0.53 mmol/L

## Cc1ccc(COc2coc(C(=O)O)cc2=O)cc1 [Example 2, 5-(4-methylbenzyloxy)-4-oxo-4H-pyran-2-carboxylic acid]
[1]
  EC50: 4.12 µM

## O=C(O)c1cc(=O)c(OCc2ccccc2)co1 [Example 3]
[1]
  EC50: 28.8 µM

## C=CCOc1coc(C(=O)O)cc1=O [Example 4]
[1]
  EC50: 29.9 µM

## CCCCCOc1coc(C(=O)O)cc1=O [Example 5]
[1]
  EC50: 1.2 µM

## CCCCOc1coc(C(=O)O)cc1=O [Example 6]
[1]
  EC50: 52.9 µM

## O=C(O)c1cc(=O)c(OCc2cccc(F)c2)co1 [Example 7]
[1]
  EC50: 62.8 µM

## O=C(O)c1cc(=O)c(OCc2cccc([N+](=O)[O-])c2)co1 [Example 8]
[1]
  EC50: 36.8 µM

## O=C(O)c1cc(=O)c(OCc2ccc([N+](=O)[O-])cc2)co1 [Example 9]
[1]
  EC50: 43.4 µM

## N#Cc1ccc(COc2coc(C(=O)O)cc2=O)cc1 [Example 10]
[1]
  EC50: 14.7 µM

## Cc1cc(C)cc(COc2coc(C(=O)O)cc2=O)c1 [Example 11]
[1]
  EC50: 31.2 µM

## O=C(O)c1cc(=O)c(OCc2ccc(F)cc2)co1 [Example 12]
[1]
  EC50: 49.5 µM

## O=C(O)c1cc(=O)c(OCc2cccc(Cl)c2)co1 [Example 13]
[1]
  EC50: 19.5 µM

## O=C(O)c1cc(=O)c(OCc2ccccc2F)co1 [Example 14]
[1]
  EC50: 12.1 µM

## N#Cc1cccc(COc2coc(C(=O)O)cc2=O)c1 [Example 15]
[1]
  EC50: 67.1 µM

## C/C=C/c1oc(C(=O)O)cc(=O)c1OCc1ccc(C)cc1 [Example 16, 5-(4-methylbenzyloxy)-4-oxo-6-propenyl-4H-pyran-2-carboxylic acid]
[1]
  EC50: 0.1 µM

## C/C=C/c1oc(C(=O)O)cc(=O)c1OCc1ccc([N+](=O)[O-])cc1 [Example 17]
[1]
  EC50: 0.24 µM

## C/C=C/c1oc(C(=O)O)cc(=O)c1OCc1ccc(C#N)cc1 [Example 18]
[1]
  EC50: 0.36 µM

## C/C=C/c1oc(C(=O)O)cc(=O)c1OCCCCC [Example 19]
[1]
  EC50: 0.39 µM

## C/C=C/c1oc(C(=O)O)cc(=O)c1OCC [Example 20]
[1]
  EC50: 0.73 µM

## CCCc1oc(C(=O)O)cc(=O)c1OCc1ccc(C)cc1 [Example 21, 5-(4-methylbenzyloxy)-4-oxo-6-propyl-4H-pyran-2-carboxylic acid]
[1]
  EC50: 4.4 µM

## CCCc1oc(C(=O)O)cc(=O)c1OCc1ccc(C#N)cc1 [Example 22]
[1]
  EC50: 45 µM

## CCCCCCOc1coc(C(=O)O)cc1=O [Example 23]
[1]
  EC50: 34.2 µM

## O=C(O)c1cc(=O)c(OCC(F)(F)F)co1 [Example 24]
[1]
  EC50: 1 µM

## O=C(O)c1cc(=O)c(OCCCF)co1 [Example 25]
[1]
  EC50: 0.76 µM

## CC(C)COc1coc(C(=O)O)cc1=O [Example 26]
[1]
  EC50: 45.3 µM

## CC(C)Oc1coc(C(=O)O)cc1=O [Example 27]
[1]
  EC50: 4.61 µM

## O=C(O)c1cc(=O)c(OCc2ccc(OC(F)F)cc2)co1 [Example 28]
[1]
  EC50: 1.81 µM

## O=C(O)c1cc(=O)c(OCc2ccc(C(F)(F)F)cc2)co1 [Example 29]
[1]
  EC50: 45.1 µM

## CCc1ccc(COc2coc(C(=O)O)cc2=O)cc1 [Example 30]
[1]
  EC50: 3.24 µM

## O=C(O)c1cc(=O)c(OCc2ccc(Cl)cc2)co1 [Example 31]
[1]
  EC50: 7.43 µM

## CC(C)c1ccc(COc2coc(C(=O)O)cc2=O)cc1 [Example 32]
[1]
  EC50: 1.48 µM

## O=C(O)c1cc(=O)c(OCc2ccc(OC(F)(F)F)cc2)co1 [Example 33]
[1]
  EC50: 22.4 µM

## N#Cc1ccc(C(=O)Oc2coc(C(=O)O)cc2=O)cc1 [Example 34]
[1]
  EC50: 0.31 µM

## Cc1ccc(C(=O)Oc2coc(C(=O)O)cc2=O)cc1 [Example 35]
[1]
  EC50: 1.19 µM

## C/C=C/c1oc(C(=O)O)cc(=O)c1OCC(F)(F)F [Example 36]
[1]
  EC50: 0.07 µM

## CCCc1cc(=O)cc(C(=O)O)o1 [Example 37, 6-propyl-4-oxo-4H-pyran-2-carboxylic acid]
[1]
  EC50: 66.7 µM

## C/C=C/c1oc(C(=O)O)cc(=O)c1CCCC [Example 38]
[1]
  EC50: 0.14 µM

## COC(=O)/C=C/c1coc(C(=O)O)cc1=O [Example 39]
[1]
  EC50: 1.19 µM

## CCOC(=O)/C=C/c1coc(C(=O)O)cc1=O [Example 40, 5-((E)-2-ethoxycarbonylvinyl)-4-oxo-4H-pyran-2-carboxylic acid]
[1]
  EC50: 1.19 µM

## CC(C)OC(=O)/C=C/c1coc(C(=O)O)cc1=O [Example 41]
[1]
  EC50: 6.87 µM

## C=C(CCC)c1coc(C(=O)O)cc1=O [Example 42]
[1]
  EC50: 6.6 µM

## CCC/C=C/c1coc(C(=O)O)cc1=O [Example 43]
[1]
  EC50: 1.03 µM

## Cc1ccc(/C=C/c2coc(C(=O)O)cc2=O)cc1 [Example 44]
[1]
  EC50: 4.83 µM

## O=C(O)c1cc(=O)c(/C=C/CCc2ccccc2)co1 [Example 45]
[1]
  EC50: 10.8 µM

## CCCCCc1coc(C(=O)O)cc1=O [Example 46]
[1]
  EC50: 0.01 µM

## CCCCc1coc(C(=O)O)cc1=O [Example 47]
[1]
  EC50: 0.01 µM
[2]; 1 mg/kg po
  lipolysis (reduction in FFA, glycerol and triglycerides): distinctly reduced
[2]; [8]
  FFA: 0.25 mmol/L
  Glycerol: 41 µmol/L
  Triglycerides: 0.25 mmol/L
[2]; [9]
  FFA: 0.37 mmol/L
  Glycerol: 55 µmol/L
  Triglycerides: 0.37 mmol/L
[2]; [10]
  FFA: 0.41 mmol/L
  Glycerol: 70 µmol/L
  Triglycerides: 0.41 mmol/L
[2]; [11]
  FFA: 0.84 mmol/L
  Glycerol: 162 µmol/L
  Triglycerides: 0.84 mmol/L

## CCCc1coc(C(=O)O)cc1=O [Example 48, 5-propyl-4-oxo-4H-pyran-2-carboxylic acid]
[1]
  EC50: 0.05 µM
[2]; 10 mg/kg po
  lipolysis (reduction in FFA, glycerol and triglycerides): distinctly reduced
[2]; [12]
  FFA: 0.19 mmol/L
  Glycerol: 35 µmol/L
  Triglycerides: 0.36 mmol/L
[2]; [13]
  FFA: 0.19 mmol/L
  Glycerol: 26 µmol/L
  Triglycerides: 0.25 mmol/L
[2]; [14]
  FFA: 0.16 mmol/L
  Glycerol: 24 µmol/L
  Triglycerides: 0.27 mmol/L
[2]; [15]
  FFA: 0.51 mmol/L
  Glycerol: 100 µmol/L
  Triglycerides: 0.41 mmol/L

## CC(C)CCc1coc(C(=O)O)cc1=O [Example 49, 5-(3-methylbutyl)-4-oxo-4H-pyran-2-carboxylic acid]
[1]
  EC50: 0.21 µM

## CCC(C)c1coc(C(=O)O)cc1=O (centres unmarked) [Example 50]
[1]
  EC50: 0.16 µM
[2]; 3 mg/kg po
  lipolysis (reduction in FFA, glycerol and triglycerides): distinctly reduced
[2]; [3]
  FFA: 0.34 mmol/L
  Glycerol: 67 µmol/L
  Triglycerides: 0.39 mmol/L
[2]; [4]
  FFA: 0.43 mmol/L
  Glycerol: 82 µmol/L
  Triglycerides: 0.36 mmol/L
[2]; [5]
  FFA: 0.50 mmol/L
  Glycerol: 86 µmol/L
  Triglycerides: 0.58 mmol/L
[2]; [6]
  FFA: 0.52 mmol/L
  Glycerol: 101 µmol/L
  Triglycerides: 0.71 mmol/L
[2]; [7]
  FFA: 0.64 mmol/L
  Glycerol: 127 µmol/L
  Triglycerides: 0.47 mmol/L

## CC(C)Cc1coc(C(=O)O)cc1=O [Example 51]
[1]
  EC50: 0.22 µM

## CC(C)c1coc(C(=O)O)cc1=O [Example 52]
[1]
  EC50: 2.69 µM
